Results from patent US20250230193A1, “CYCLIC COMPOUND HAVING SELECTIVE KRAS INHIBITORY EFFECT ON HRAS AND NRAS” (CHUGAI SEIYAKU KABUSHIKI KAISHA, priority 2022, published 2025).

How the values were obtained:
[1] = molecular target: GDP-bound NRAS wild-type protein (Homo sapiens, UniProt P01111); assay: Binding to NRAS by surface plasmon resonance (SPR), Single Cycle Kinetics; settings: SPR; KD ratio class
[2] = molecular target: GDP-bound HRAS wild-type protein (Homo sapiens, UniProt P01112); assay: Binding to HRAS by surface plasmon resonance (SPR), Single Cycle Kinetics; settings: SPR; KD ratio class
[3] = test system: human lung cancer strain NCI-H441; assay: cells; settings: NCI-H441, 96 h, read-out: NCI-H441 IC50 (nM)

Sequence of GDP-bound HRAS wild-type protein (P01112 whole entry): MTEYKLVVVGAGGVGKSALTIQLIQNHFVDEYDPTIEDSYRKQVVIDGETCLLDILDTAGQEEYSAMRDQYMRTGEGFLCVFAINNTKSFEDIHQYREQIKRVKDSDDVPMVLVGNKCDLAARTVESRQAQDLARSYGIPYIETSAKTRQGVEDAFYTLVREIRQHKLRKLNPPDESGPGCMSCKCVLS
Sequence of GDP-bound NRAS wild-type protein (P01111 whole entry): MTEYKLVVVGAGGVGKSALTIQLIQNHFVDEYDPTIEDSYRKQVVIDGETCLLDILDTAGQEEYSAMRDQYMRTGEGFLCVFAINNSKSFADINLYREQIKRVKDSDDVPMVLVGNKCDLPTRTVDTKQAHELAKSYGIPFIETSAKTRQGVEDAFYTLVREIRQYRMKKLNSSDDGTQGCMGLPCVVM

SMILES	NRAS/KRAS (ratio of KD value for GDP-bound NRAS wild-type protein to KD value for KRAS) [1]	HRAS/KRAS (ratio of KD value for GDP-bound HRAS wild-type protein to KD value for KRAS) [2]	IC50 [3] [nM]
CCO[C@@H]1C[C@H]2C(=O)NC3(CCC3)C(=O)N(C)[C@@H](C3CCCC3)C(=O)N(C)[C@H](C(=O)N(C)C)CC(=O)N(C)[C@@H](CC(C)C)C(=O)N[C@@H]([C@@H](C)CC)C(=O)N(C)CC(=O)N(C)[C@H]3C/C=C\CCN(C3=O)[C@@H](Cc3ccc(C(F)(F)F)cc3)C(=O)N(C)CC(=O)N[C@@H](CCc3ccc(Cl)c(Cl)c3)C(=O)N2C1 [PP1251]	AA (a compound having 20 or more is denoted as AA)	A (a compound having 10 or more and less than 20 is denoted as A)	10.2
CCCCCC[C@H]1C(=O)N[C@@H]([C@@H](C)CC)C(=O)N(C)CC(=O)N(C)[C@H]2C/C=C\CCN(C2=O)[C@@H](Cc2ccc(C(F)(F)F)cc2)C(=O)N(C)CC(=O)N[C@@H](CCc2ccc(Cl)c(Cl)c2)C(=O)N2C[C@H](OCC)C[C@H]2C(=O)NC2(CCC2)C(=O)N(C)[C@@H](C2CCCC2)C(=O)N(C)[C@H](C(=O)N(C)C)CC(=O)N1C [PP1252]	AA (a compound having 20 or more is denoted as AA)	A (a compound having 10 or more and less than 20 is denoted as A)	51.2
CCO[C@@H]1C[C@H]2C(=O)NC3(CCC3)C(=O)N(C)[C@@H](C3CCCC3)C(=O)N(C)[C@H](C(=O)N(C)C)CC(=O)N(C)[C@@H](CC3CCCC3)C(=O)N[C@@H]([C@@H](C)CC)C(=O)N(C)CC(=O)N(C)[C@H]3C/C=C\CCN(C3=O)[C@@H](Cc3ccc(C(F)(F)F)cc3)C(=O)N(C)CC(=O)N[C@@H](CCc3ccc(Cl)c(Cl)c3)C(=O)N2C1 [PP1254]	AA (a compound having 20 or more is denoted as AA)	A (a compound having 10 or more and less than 20 is denoted as A)	28.3
CCO[C@@H]1C[C@H]2C(=O)NC3(CCC3)C(=O)N(C)[C@@H](C3CCCC3)C(=O)N(C)[C@H](C(=O)N(C)C)CC(=O)N(C)[C@@H](CC)C(=O)N[C@@H]([C@@H](C)CC)C(=O)N(C)CC(=O)N(C)[C@H]3C/C=C\CCN(C3=O)[C@@H](Cc3ccc(C(F)(F)F)cc3)C(=O)N(C)CC(=O)N[C@@H](CCc3ccc4sccc4c3)C(=O)N2C1 [PP1255]	A (a compound having 10 or more and less than 20 is denoted as A)	A (a compound having 10 or more and less than 20 is denoted as A)	156
CCC[C@H]1C(=O)N[C@@H]([C@@H](C)CC)C(=O)N(C)CC(=O)N(C)[C@H]2C/C=C\CCN(C2=O)[C@@H](Cc2ccc(C(F)(F)F)cc2)C(=O)N(C)CC(=O)N[C@@H](CCc2ccc3sccc3c2)C(=O)N2C[C@H](OCC)C[C@H]2C(=O)NC2(CCC2)C(=O)N(C)[C@@H](C2CCCC2)C(=O)N(C)[C@H](C(=O)N(C)C)CC(=O)N1C [PP1256]	A (a compound having 10 or more and less than 20 is denoted as A)	A (a compound having 10 or more and less than 20 is denoted as A)	69
CCO[C@@H]1C[C@H]2C(=O)NC3(CCC3)C(=O)N(C)[C@@H](C3CCCC3)C(=O)N(C)[C@H](C(=O)N(C)C)CC(=O)N(C)[C@@H](CC(C)C)C(=O)N[C@@H]([C@@H](C)CC)C(=O)N(C)CC(=O)N(C)[C@H]3C/C=C\CCN(C3=O)[C@@H](Cc3ccc(C(F)(F)F)cc3)C(=O)N(C)CC(=O)N[C@@H](CCc3ccc4sccc4c3)C(=O)N2C1 [PP1257]	A (a compound having 10 or more and less than 20 is denoted as A)	A (a compound having 10 or more and less than 20 is denoted as A)	54.3
